The values below come from patent US20090203634A1, “Compositions and Uses of Amooranin Compounds” (Variety Children's Hospital d/b/a Miami Children's Hospital, priority 2005, published 2009).

Where a name gives a salt, the structure may show the parent alone. Read-outs that look alike come from different tables or passages of the source.

The subject of one experiment is SW620/Ad-300. The experiment is described as follows: MTT cytotoxicity assay (Examples 1-5). The experiment is classed as cell-based, human. The text has this:
(§1) Cytotoxicity Assay (Examples 1-5). […] Cell proliferation kit I (MTT) from Roche Diagnostics GmbH (Indianapolis, Ind.) was used for cytotoxicity assays and manufacturers protocol was followed for the assay.
A general note: Tetrazolium dyes change colour on reduction, which living cells bring about.

A further experiment concerns CEM. The experiment is described as follows: MTT cytotoxicity assay (Examples 1-5). The experiment is classed as cell-based, human. The settings on record: Homo sapiens, CCRF-CEM.
Text: as §1

A further experiment concerns CEM/VLB. The experiment is described as follows: MTT cytotoxicity assay (Examples 1-5). The experiment is classed as cell-based, human. The settings on record: for IC50: Homo sapiens, read-out: DOX IC50, CEM/VLB.
Text: as §1

The test system of experiment [1] is SW620 human tumor xenografts. The experiment is described as follows: Xenograft studies with AMR in nude mice. The experiment is classed as in vivo. Conditions: 2 mg/kg. As to the method: Xenograft studies with AMR in nude mice. Male athymic nude (nu/nu) mice of the BALB/c strain (4-5 weeks old) were purchased from Taconic Labs, NY. SW620 colon carcinoma cells (10^6/site) in 0.1 ml of Hank's balanced salt solution were injected subcutaneously into the right flank of the nude mice using a 21 gauge needle. When the tumors reached approximately 0.5 cm^3 size in volume (usually 14 days), chemotherapy with AMR was started involving six animals in each group with almost similar size tumors. […] AMR was dissolved in 1:1 mixture of Cremophor EL and ethanol for administration and the control treatments were doxorubicin dissolved in phosphate dissolved saline and saline alone (0 mg/kg). Tumor size (length and width) was recorded on every fifth day of treatment along with body weight and survival data. Tumor volume was calculated using the following formula: […]
Tumor growth rate was calculated as mean V1/V0 where V1 is the volume on the evaluation day of treatment effect and V0 is that on the first day of treatment. The growth rate index and therapeutic index estimates were calculated using the following formulae:
Therapeutic Ratio=100—Tumor Growth Rate Index (GRI)

The subject of a further experiment is MCF-7. The experiment is described as follows: TUNEL assay of DNA fragmentation. The class given is cell-based, human. Conditions: DNase-treated positive control. How it is done: (§2) Analysis of DNA fragmentation by agarose gel electrophoresis. To assess the pattern of DNA cleavage caused by AMR, agarose gel electrophoresis was performed as described by Cohen and Duke (Cohen, J. J. and Duke, R. C. J Immunol, 1984, 132:38-42). Briefly, control and drug-treated cells (2×10^6 cells) were lysed with 0.5 ml lysis buffer containing 0.2% Triton X-100 at room temperature for 30 minutes. The supernatant fractions were collected by centrifugation at 12,000×g for 30 minutes. The DNA in these fractions was precipitated overnight with 100 μl 5 M sodium chloride and 0.5 ml 2-isopropanol at −20° C. The DNA was dissolved in 20 μl of 10 mM Tris-HCl (pH 7.4) and 1 mM EDTA buffer. RNase (10 units) was added to the samples before incubating at 60° C. for 1 hour. An equal volume of loading buffer was added afterwards and the samples were subjected to electrophoresis on a 2% agarose gel in Tris borate buffer at 50 V for 3 hours. The agarose gel was stained with ethidium bromide, and DNA fragmentation pattern was visualized in a UV transilluminator. AMR-induced DNA fragmentation was also analyzed by TUNEL assay using in situ cell detection kit according to manufacturer's instructions. Briefly, cells were permeabilized in a solution containing 0.1% Triton X-100 and 0.1% (w/v) sodium citrate for 2 minutes. After washing in PBS, cells were incubated with label solution and terminal transferase. Cells were incubated without terminal deoxynucleotidyl transferase was used as negative control. DNase (1 μg/ml) treated cells incubated with label solution in the presence of terminal deoxynucleotidyl transferase (TUNEL reaction mixture) was used as positive control and the details of TUNEL assay have been described earlier (Ramachandran, C. et al. Anticancer Res, 1997, 17:3369-3376).

The test system of a further experiment is MCF-10A. The experiment is described as follows: TUNEL assay of DNA fragmentation. The experiment is classed as cell-based, human. The settings on record: DNase-treated positive control. As to the method:
as §2

A further experiment has as its system MCF-7/TH. The experiment is described as follows: TUNEL assay of DNA fragmentation. The class given is cell-based, human. Conditions: DNase-treated positive control. How it is done:
as §2

As for `COc1cccc2c1C(=O)c1c(O)c3c(c(O)c1C2=O)C[C@@](O)(C(=O)CO)C[C@@H]3O[C@H]1C[C@H](N)[C@H](O)[C@H](C)O1` [DOX, Doxorubicin hydrochloride, reference compound], the IC50 – broadly, the concentration needed to halve the response being measured – in the experiment on SW620/Ad-300 (Homo sapiens, SW620/AD300, read-out: DOX IC50, SW620/Ad-300, mean ± SD (n = 3)) came out at 28.9 ± 0.95 µM; in the experiment with CEM (read-out: DOX IC50, 48 hours exposure), 0.12 µg/mL; in the experiment with CEM (read-out: DOX IC50, mean ± SD (n = 3)), 230 ± 20 nM; in the experiment with CEM/VLB (48 hours exposure), 13.4 µg/mL; in the experiment on CEM/VLB (mean ± SD (n = 3)), 23.1 ± 0.78 µM. For the same molecule, the “resistance to DOX” value is listed as “approximately 125 fold” in the experiment with SW620/Ad-300 (SW620/Ad-300 versus SW620, based on IC50 values) and “approximately 112 fold” in the experiment on CEM/VLB (CEM/VLB versus CEM). Also, the “Survival (%)” value in experiment [1] is 83.3%.

Turning to DNase [reference compound], the “apoptotic cells (TUNEL)” value in the experiment on MCF-7, with MCF-10A and in the experiment on MCF-7/TH was “more than 95%” throughout.
